According to patent US11034675B2, “Solid forms of Selinexor and process for their preparation” (DR. REDDY'S LABORATORIES LIMITED, priority 2016, dated 2021):

Assays:
[1] = stability of amorphous form under mechanical stress (grinding, milling); type: physicochemical; conditions: mechanical stress such as grinding and milling
Description: (§1) The present application provides a stable amorphous form of Selinexor suitable for powder handling and downstream processes. […] In an embodiment, the present application provides a stable amorphous form of Selinexor with less than 5% of crystallinity, preferably with less than 1% crystallinity and more preferably devoid of crystallinity as per X-ray diffraction analysis.

[2] = stability of amorphous form under hygroscopic conditions (higher relative humidity); type: physicochemical; conditions: higher relative humidity conditions of more than 60% RH
Description: as §1

Structure (SMILES): O=C(/C=C\n1cnc(-c2cc(C(F)(F)F)cc(C(F)(F)F)c2)n1)NNc1cnccn1 [Amorphous form of Selinexor, (Z)-3-(3-(3,5-bis(trifluoromethyl)phenyl)-IH—I,2,4-triazol-1-yl)-N′-(pyrazin-2yl) acrylohydrazide]
- stability under mechanical stress [1]: highly stable
- stability under hygroscopic conditions [2]: stable
